Key:
Type in all cases: biochemical
Conditions in all cases: 1 μM inhibitor concentration
SYK = SYK (Homo sapiens (Human), UniProt P43405); assay: SYK kinase selectivity assay
Protocol: (§1) SYK (5-20 mU diluted in 50 mM Tris pH 7.5, 0.1 mM EGTA, 1 mg/ml BSA) is assayed against a substrate peptide (Poly Glut Tyr) in a final volume of 25.5 μl containing 50 mM Tris pH 7.5, 1 mg/ml substrate peptide, 10 mM magnesium acetate and 0.02 mM [33P-g-ATP] (50-1000 cpm/pmole) and incubated for 30 min at room temperature. Assays are stopped by addition of 5 μl of 0.5 M (3%) orthophosphoric acid and then harvested onto P81 Unifilter plates with a wash buffer of 50 mM orthophosphoric acid.

IGF-1R = IGF-1R (Homo sapiens (Human), UniProt P08069); assay: IGF-1R kinase selectivity assay
Protocol: as §1, with “IGF-1R (5-20” for “SYK (5-20”, “peptide ([…])” for “peptide (Poly Glut Tyr)”, “7.5, 300 µM” for “7.5, 1 mg/ml”, “and 0.005” for “and 0.02”

MELK = MELK (Homo sapiens (Human), UniProt Q14680); assay: MELK kinase selectivity assay
Protocol: as §1, with “MELK (5-20” for “SYK (5-20”, “EGTA, 0.1% b-mercaptoethanol,” for “EGTA,”, “peptide ([…])” for “peptide (Poly Glut Tyr)”, “7.5, 0.05% b-mercaptoethanol, 200 μM” for “7.5, 1 mg/ml”, “and 0.05” for “and 0.02”

GSK3b = GSK3b (Homo sapiens (Human), UniProt P49841); assay: GSK3b kinase selectivity assay
Protocol: GSK3b (5-20 mU diluted in 20 mM MOPS pH 7.5, 1 mM EDTA, 0.01% Brij35, 5% glycerol, 0.1% b-mercaptoethanol, 1 mg/ml BSA) is assayed against Phospho-GS2 peptide ([…](PO4)EDEEE) in a final volume of 25.5 μl containing 8 mM MOPS pH 7.0, 0.2 mM EDTA, 20 μM Phospho GS2 peptide, 10 mM magnesium acetate and 0.005 mM [33P-g-ATP] (50-1000 cpm/pmole) and incubated for 30 min at room temperature. Assays are stopped by addition of 5 μl of 0.5 M (3%) orthophosphoric acid and then harvested onto P81 Unifilter plates with a wash buffer of 50 mM orthophosphoric acid.

TBK1 = TBK1 (Homo sapiens (Human), UniProt Q9UHD2); assay: TBK1 kinase selectivity assay
Protocol: as §1, with “TBK1 (DU12569) (5-20” for “SYK (5-20”, “peptide ([…])” for “peptide (Poly Glut Tyr)”, “7.5, 300 μM” for “7.5, 1 mg/ml”, “and 0.05” for “and 0.02”

AuroraA = AuroraA (Homo sapiens (Human), UniProt O14965); assay: AuroraA kinase selectivity assay
Protocol: Aurora A (5-20 mU diluted in 50 mM Tris pH 7.5, 0.1 mM EGTA, 0.1% β-mercaptoethanol, 1 mg/ml BSA) is assayed against […] in a final volume of […] containing 50 mM Tris pH 7.5, 0.1 mM EGTA, 0.3 mM […] 10 mM magnesium acetate and 0.005 mM [33P-γ-ATP](50-1000 cpm/pmole) and incubated for 30 min at room temperature. Assays are stopped by addition of 5 μl of 0.5 M (3%) orthophosphoric acid and then harvested onto P81 Unifilter plates with a wash buffer of 50 mM orthophosphoric acid.

AuroraB = AuroraB (Homo sapiens (Human), UniProt Q96GD4); assay: AuroraB kinase selectivity assay
Protocol: as §1, with “Aurora B (5-20” for “SYK (5-20”, “EGTA, 0.1% b-mercaptoethanol,” for “EGTA,”, “peptide ([…])” for “peptide (Poly Glut Tyr)”, “7.5, 0.05% b-mercaptoethanol, 300 μM” for “7.5, 1 mg/ml”, “mM [33P-g-ATP](50-1000” for “mM [33P-g-ATP] (50-1000”

PLK1 = PLK1 (Homo sapiens (Human), UniProt P53350); assay: PLK1 kinase selectivity assay
Protocol: as §1, with “PLK1 (5-20” for “SYK (5-20”, “EGTA, 0.1% b-mercaptoethanol,” for “EGTA,”, “mg/ml BSA, 100 μM Vanadate)” for “mg/ml BSA)”, “peptide ([…])” for “peptide (Poly Glut Tyr)”, “7.5, 0.05% b-mercaptoethanol, 10 μM Vanadate, 300 μM” for “7.5, 1 mg/ml”, “and 0.005” for “and 0.02”
as §1, with “PLK1 (5-20” for “SYK (5-20”, “EGTA, 0.1% b-mercaptoethanol,” for “EGTA,”, “mg/ml BSA, 100 µM Vanadate)” for “mg/ml BSA)”, “peptide ([…])” for “peptide (Poly Glut Tyr)”, “7.5, 0.05% b-mercaptoethanol, […], 300 μM” for “7.5, 1 mg/ml”, “and 0.005” for “and 0.02”

Chain of AuroraB (Q96GD4 whole entry): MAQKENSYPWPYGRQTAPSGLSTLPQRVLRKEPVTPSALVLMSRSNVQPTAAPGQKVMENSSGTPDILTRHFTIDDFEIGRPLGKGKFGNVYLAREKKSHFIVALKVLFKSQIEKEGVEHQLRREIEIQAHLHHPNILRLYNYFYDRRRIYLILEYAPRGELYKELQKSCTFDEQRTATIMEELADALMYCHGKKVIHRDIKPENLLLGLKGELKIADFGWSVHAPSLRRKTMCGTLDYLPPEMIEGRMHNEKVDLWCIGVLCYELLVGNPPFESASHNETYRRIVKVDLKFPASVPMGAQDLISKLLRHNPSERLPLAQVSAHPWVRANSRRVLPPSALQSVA
Chain of GSK3b (P49841 whole entry, species assumed): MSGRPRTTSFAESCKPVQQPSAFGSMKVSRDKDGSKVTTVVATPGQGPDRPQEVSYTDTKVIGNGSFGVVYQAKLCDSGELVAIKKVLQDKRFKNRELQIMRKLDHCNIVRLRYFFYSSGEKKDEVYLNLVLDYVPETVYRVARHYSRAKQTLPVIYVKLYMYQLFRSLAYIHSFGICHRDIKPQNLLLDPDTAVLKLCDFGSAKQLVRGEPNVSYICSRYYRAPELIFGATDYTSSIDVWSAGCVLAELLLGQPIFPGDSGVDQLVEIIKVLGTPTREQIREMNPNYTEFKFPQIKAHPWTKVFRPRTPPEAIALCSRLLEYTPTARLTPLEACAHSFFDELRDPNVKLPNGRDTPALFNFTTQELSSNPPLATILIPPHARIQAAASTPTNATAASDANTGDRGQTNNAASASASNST
Chain of MELK (Q14680 whole entry, species assumed): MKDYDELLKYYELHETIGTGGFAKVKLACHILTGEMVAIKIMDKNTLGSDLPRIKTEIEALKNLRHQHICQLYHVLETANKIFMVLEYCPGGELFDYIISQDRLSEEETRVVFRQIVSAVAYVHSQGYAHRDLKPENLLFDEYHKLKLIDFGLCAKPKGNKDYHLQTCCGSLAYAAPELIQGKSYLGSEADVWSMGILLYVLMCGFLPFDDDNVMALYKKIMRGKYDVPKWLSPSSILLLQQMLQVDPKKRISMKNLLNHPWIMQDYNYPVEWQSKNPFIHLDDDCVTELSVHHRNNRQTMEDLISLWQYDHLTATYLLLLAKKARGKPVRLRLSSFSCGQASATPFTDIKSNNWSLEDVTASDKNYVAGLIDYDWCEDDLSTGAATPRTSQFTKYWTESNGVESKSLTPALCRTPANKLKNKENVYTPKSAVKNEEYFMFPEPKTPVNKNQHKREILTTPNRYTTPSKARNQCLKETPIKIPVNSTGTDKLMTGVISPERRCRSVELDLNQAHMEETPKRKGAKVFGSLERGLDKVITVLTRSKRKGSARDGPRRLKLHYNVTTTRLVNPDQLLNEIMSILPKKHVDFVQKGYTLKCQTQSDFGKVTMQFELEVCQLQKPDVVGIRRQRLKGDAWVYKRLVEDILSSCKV
Chain of AuroraA (O14965 whole entry): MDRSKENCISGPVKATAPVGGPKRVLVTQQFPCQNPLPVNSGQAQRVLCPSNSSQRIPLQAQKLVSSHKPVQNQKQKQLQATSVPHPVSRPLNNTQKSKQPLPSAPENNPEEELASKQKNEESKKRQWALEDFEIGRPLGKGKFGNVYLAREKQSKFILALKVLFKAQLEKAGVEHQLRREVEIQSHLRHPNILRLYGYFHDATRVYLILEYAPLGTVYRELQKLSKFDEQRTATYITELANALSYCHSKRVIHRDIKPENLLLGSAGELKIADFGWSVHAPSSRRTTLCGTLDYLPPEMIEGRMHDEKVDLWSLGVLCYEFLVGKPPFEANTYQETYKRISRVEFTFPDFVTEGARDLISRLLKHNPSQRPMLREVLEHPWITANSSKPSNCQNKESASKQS
Chain of TBK1 (Q9UHD2 whole entry, species assumed): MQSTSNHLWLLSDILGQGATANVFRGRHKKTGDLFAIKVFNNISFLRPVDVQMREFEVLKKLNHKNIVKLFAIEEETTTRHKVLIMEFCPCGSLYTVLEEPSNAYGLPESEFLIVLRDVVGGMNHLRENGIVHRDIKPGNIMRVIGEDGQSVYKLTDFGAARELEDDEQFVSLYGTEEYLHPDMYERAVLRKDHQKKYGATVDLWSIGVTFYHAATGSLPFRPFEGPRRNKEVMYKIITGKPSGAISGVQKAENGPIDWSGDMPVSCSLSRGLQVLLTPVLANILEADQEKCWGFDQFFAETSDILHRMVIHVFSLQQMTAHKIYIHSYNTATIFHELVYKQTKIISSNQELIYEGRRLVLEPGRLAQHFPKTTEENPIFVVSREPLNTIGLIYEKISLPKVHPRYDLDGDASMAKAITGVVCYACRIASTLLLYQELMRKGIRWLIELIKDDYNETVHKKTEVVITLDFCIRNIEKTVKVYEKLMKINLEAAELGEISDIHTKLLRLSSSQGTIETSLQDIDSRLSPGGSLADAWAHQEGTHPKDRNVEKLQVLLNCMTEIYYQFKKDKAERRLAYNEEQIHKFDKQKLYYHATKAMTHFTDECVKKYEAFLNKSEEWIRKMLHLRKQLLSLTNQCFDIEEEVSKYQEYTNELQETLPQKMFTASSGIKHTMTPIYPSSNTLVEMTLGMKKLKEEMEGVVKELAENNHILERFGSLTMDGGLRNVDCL
Chain of PLK1 (P53350 whole entry, species assumed): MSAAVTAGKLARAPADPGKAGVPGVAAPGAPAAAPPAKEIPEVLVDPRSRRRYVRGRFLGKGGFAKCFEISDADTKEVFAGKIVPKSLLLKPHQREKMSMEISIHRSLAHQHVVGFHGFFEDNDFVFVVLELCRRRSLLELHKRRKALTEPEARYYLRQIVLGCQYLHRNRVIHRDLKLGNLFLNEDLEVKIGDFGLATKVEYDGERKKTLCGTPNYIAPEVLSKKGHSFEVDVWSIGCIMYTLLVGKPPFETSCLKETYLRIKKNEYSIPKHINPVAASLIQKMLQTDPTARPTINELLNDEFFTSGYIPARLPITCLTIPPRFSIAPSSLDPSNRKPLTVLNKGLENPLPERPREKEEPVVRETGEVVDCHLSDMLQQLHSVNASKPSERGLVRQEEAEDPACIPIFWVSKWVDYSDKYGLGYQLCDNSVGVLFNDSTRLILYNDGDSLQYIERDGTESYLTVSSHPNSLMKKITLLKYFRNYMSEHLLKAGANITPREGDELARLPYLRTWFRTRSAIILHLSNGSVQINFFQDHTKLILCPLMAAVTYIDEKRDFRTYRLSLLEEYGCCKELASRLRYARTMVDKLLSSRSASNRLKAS
Chain of IGF-1R (P08069 31-1367, species assumed): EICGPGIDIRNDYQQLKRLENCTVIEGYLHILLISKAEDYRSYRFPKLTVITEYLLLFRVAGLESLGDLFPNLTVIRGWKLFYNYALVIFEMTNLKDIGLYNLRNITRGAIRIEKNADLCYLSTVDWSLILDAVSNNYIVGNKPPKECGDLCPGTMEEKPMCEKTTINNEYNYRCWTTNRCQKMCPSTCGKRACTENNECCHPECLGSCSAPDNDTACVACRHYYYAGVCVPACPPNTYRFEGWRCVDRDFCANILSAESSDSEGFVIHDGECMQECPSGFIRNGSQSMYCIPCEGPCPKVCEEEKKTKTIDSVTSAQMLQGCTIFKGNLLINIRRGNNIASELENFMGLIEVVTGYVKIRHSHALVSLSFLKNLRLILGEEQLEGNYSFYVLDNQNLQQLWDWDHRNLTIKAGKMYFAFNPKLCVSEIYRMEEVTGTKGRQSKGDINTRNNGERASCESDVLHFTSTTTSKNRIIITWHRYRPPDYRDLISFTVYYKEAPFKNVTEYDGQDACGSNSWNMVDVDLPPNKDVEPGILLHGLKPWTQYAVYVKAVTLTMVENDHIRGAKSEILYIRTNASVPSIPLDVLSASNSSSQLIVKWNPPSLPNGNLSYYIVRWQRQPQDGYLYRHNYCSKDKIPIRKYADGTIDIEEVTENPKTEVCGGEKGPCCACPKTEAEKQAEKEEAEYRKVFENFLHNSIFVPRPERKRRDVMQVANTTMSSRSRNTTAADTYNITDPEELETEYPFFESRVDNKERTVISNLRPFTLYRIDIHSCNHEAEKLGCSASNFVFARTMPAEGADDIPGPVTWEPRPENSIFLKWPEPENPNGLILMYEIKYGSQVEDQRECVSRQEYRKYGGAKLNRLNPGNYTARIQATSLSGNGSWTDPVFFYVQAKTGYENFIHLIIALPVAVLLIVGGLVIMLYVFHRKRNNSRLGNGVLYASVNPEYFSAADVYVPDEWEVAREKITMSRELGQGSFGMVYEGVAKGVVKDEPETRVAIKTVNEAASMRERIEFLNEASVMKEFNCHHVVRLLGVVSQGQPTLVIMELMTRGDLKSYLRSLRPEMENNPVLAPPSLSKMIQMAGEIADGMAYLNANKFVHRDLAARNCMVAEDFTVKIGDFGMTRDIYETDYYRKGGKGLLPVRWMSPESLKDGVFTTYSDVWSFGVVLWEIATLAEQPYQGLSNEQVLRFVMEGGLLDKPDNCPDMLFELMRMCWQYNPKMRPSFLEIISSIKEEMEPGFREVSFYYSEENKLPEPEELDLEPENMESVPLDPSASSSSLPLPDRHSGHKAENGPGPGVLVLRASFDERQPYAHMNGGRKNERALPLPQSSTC

SMILES | percentage inhibition of SYK (SYK) | percentage inhibition of IGF-1R (IGF-1R) | percentage inhibition of MELK (MELK) | percentage inhibition of GSK3b (GSK3b) | percentage inhibition of TBK1 (TBK1) | percentage inhibition of AuroraA (AuroraA) | percentage inhibition of AuroraB (AuroraB) | percentage inhibition of PLK1 (PLK1)
c1cc2[nH]nc3c2c(n1)N(C1CCOCC1)CCC3 [Example 29, 6-(tetrahydro-2H-pyran-4-yl)-6,7,8,9-tetrahydro-2H-1,2,5,6-tetraazabenzo[cd]azulene] | 0 percentage | 9 percentage | 24 percentage | 0 percentage | 0 percentage | 0 percentage | 29 percentage | 0 percentage
CN1CCC(N2Cc3ccccc3-c3n[nH]c4ccnc2c34)CC1 [Example 55] | 0 percentage | 8 percentage | 78 percentage | 0 percentage | 5 percentage | 9 percentage | 38 percentage | 28 percentage
c1cc2[nH]nc3c2c(n1)N(C1CCCC1)CCC3 [Example 23, 6-cyclopentyl-6,7,8,9-tetrahydro-2H-1,2,5,6-tetraazabenzo[cd]azulene] | 0 percentage | 2 percentage | 1 percentage | 0 percentage | 0 percentage | 0 percentage | 1 percentage | 3 percentage
CC(C)n1ncc2c1CN(C1CCN(C)CC1)c1nccc3[nH]nc-2c13 [Example 68] | 1 percentage | 0 percentage | 72 percentage | 0 percentage | 5 percentage | 13 percentage | 19 percentage | 21 percentage
c1cc2[nH]nc3c2c(n1)N(C1CCC1)CCC3 [Example 22, 6-cyclobutyl-6,7,8,9-tetrahydro-2H-1,2,5,6-tetraazabenzo[cd]azulene] | 0 percentage | 9 percentage | 10 percentage | 16 percentage | 0 percentage | 0 percentage | 23 percentage | 4 percentage

Source: patent US10918645B2 (LIFEARC, priority 2016, dated 2021)
